US12398120B2, “Substituted hydantoinamides as ADAMTS7 antagonists” (BAYER AKTIENGESELLSCHAFT, priority 2019, dated 2025)

Each compound was assayed against ADAMTS4 (Homo sapiens (Human), UniProt O75173) (assay: Selectivity assay for ADAMTS-7 modulators: ADAMTS4 (FRET substrate)). Conditions: ADAMTS4 (R&D 4307-AD) 50 nM, substrate Dabcyl-EEVKAKVQPY-Glu(Edans)-NH2 1 μM, 120 min, 32° C.
Format: biochemical
Procedure: 1 μl test compound solution (dissolved in DMSO, at the corresponding concentration) or pure DMSO as a control was added per well. The enzymatic reaction was initiated by addition of 25 μl of the respective concentration of the respective FRET substrate (see table 2 below) in reaction buffer.
The increase of fluorescence intensity was measured in appropriate fluorescence plate reader (e.g. TECAN Ultra) using the respective wavelengths for excitation and emission. IC50 values were calculated from percentage of inhibition of enzyme activity as a function of test compound concentration.

Chain of ADAMTS4 (O75173 213-685): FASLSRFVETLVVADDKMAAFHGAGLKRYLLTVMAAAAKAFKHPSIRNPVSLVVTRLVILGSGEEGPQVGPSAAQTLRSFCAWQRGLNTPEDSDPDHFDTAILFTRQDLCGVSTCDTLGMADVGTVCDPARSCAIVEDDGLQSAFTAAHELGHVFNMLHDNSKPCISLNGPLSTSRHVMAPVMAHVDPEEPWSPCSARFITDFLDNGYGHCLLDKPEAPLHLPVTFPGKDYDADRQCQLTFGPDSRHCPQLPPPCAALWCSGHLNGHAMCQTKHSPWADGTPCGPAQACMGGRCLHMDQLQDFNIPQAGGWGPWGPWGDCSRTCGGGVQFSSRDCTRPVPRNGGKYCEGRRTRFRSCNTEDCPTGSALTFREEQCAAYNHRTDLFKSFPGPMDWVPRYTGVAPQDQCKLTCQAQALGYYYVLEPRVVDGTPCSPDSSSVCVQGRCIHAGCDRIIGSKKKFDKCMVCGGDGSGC

SMILES	IC50 [µM]
O=C1NC(=O)[C@](CNC(=O)c2ccccc2-c2ccc(C3CC3)cc2)(C2CC2)N1 [Example 105, 4′-Cyclopropyl-N-{[(4R)-4-Cyclopropyl-2,5-Dioxoimidazolidin-4-Yl]Methyl}[Biphenyl]-2-Carboxamide]	4.9
Cc1nscc1C1(CNC(=O)c2ccccc2-c2ccc(C(F)(F)F)cc2)NC(=O)NC1=O (stereo not drawn) [Example 86, Ent-N-{[4-(3-Methyl-1,2-Thiazol-4-Yl)-2,5-Dioxoimidazolidin-4-Yl]Methyl}-4′-(Trifluoromethyl)[Biphenyl]-2-Carboxamide]	7.6
O=C1NC(=O)[C@](CNC(=O)c2ccc(Cl)cc2-c2ccc(Cl)cc2)(C2CC2)N1 [Example 232, 4′,5-Dichloro-N-{[(4R)-4-Cyclopropyl-2,5-Dioxoimidazolidin-4-Yl]Methyl}[1,1′-Biphenyl]-2-Carboxamide]	3.7
Cc1cn(C)nc1C1(CNC(=O)c2ccccc2-c2ccc(C(F)(F)F)cc2)NC(=O)NC1=O (racemic) [Example 39, Rac-N-{[4-(1,4-Dimethyl-1H-Pyrazol-3-Yl)-2,5-Dioxoimidazolidin-4-Yl]Methyl}-4′-(Trifluoromethyl)[Biphenyl]-2-Carboxamide]	10
Cc1ccc(-c2ccccc2C(=O)NCC2(c3nccs3)NC(=O)NC2=O)cc1 (racemic) [Example 200, Rac-N-{[2,5-Dioxo-4-(1,3-Thiazol-2-Yl)Imidazolidin-4-Yl]Methyl}-4′-Methyl[Biphenyl]-2-Carboxamide]	28
O=C1NC(=O)C(CNC(=O)c2ccccc2-c2ccc(C(F)(F)F)cc2)(c2cccnn2)N1 (racemic) [Example 42, Rac-N-{[2,5-Dioxo-4-(Pyridazin-3-Yl)Imidazolidin-4-Yl]Methyl}-4′-(Trifluoromethyl)[Biphenyl]-2-Carboxamide]	> 50
Cc1ccc(C(=O)NCC2(c3ncsc3C)NC(=O)NC2=O)c(-c2ccc(C(F)(F)F)cc2)c1 (racemic) [Example 167, Rac-5-Methyl-N-{[4-(5-Methyl-1,3-Thiazol-4-Yl)-2,5-Dioxoimidazolidin-4-Yl]Methyl}-4′-(Trifluoromethyl)[Biphenyl]-2-Carboxamide]	4.4
Cn1ccnc1C1(CNC(=O)c2cc(Cl)ccc2-c2ccc(C(F)(F)F)cc2)NC(=O)NC1=O (single isomer, unassigned; ent-4) [Example 156, Ent-4-Chloro-N-{[4-(1-Methyl-1H-Imidazol-2-Yl)-2,5-Dioxoimidazolidin-4-Yl]Methyl}-4′-(Trifluoromethyl)[Biphenyl]-2-Carboxamide]	25
Cc1ccc(-c2cccc(Cl)c2C(=O)NC[C@@]2(C3CC3)NC(=O)NC2=O)cc1 [Example 222, 3-Chloro-N-{[(4R)-4-Cyclopropyl-2,5-Dioxoimidazolidin-4-Yl]Methyl}-4′-Methyl[1,1′-Biphenyl]-2-Carboxamide]	3
CC(C)C1(CNC(=O)c2ccc(F)cc2-c2ccc(C(F)(F)F)cc2)NC(=O)NC1=O (racemic) [Example 206, Rac-5-Fluoro-N-[(4-Isopropyl-2,5-Dioxoimidazolidin-4-Yl)Methyl]-4′-(Trifluoromethyl)[Biphenyl]-2-Carboxamide]	> 50
O=C1NC(=O)C(CNC(=O)c2cccc(F)c2-c2ccc(C(F)(F)F)cc2)(C2(F)CC2)N1 (single isomer, unassigned; ent-6) [Example 300, Ent-6-Fluoro-N-{[4-(1-Fluorocyclopropyl)-2,5-Dioxoimidazolidin-4-Yl]Methyl}-4′-(Trifluoromethyl)[Biphenyl]-2-Carboxamide]	23
O=C1NC(=O)C(CNC(=O)c2ccccc2-c2ccc(C(F)(F)F)nc2)(c2cscn2)N1 (stereo not drawn) [Example 277, Ent-N-{[2,5-Dioxo-4-(1,3-Thiazol-4-Yl)Imidazolidin-4-Yl]Methyl}-2-[6-(Trifluoromethyl)Pyridin-3-Yl]Benzamide]	16
Cn1nccc1C1(CNC(=O)c2ccc(F)c(F)c2-c2ccc(C(F)(F)F)cc2)NC(=O)NC1=O (single isomer, unassigned; ent-5) [Example 191, Ent-5,6-Difluoro-N-{[4-(1-Methyl-1H-Pyrazol-5-Yl)-2,5-Dioxoimidazolidin-4-Yl]Methyl}-4′-(Trifluoromethyl)[Biphenyl]-2-Carboxamide]	6.48
COc1ccc(-c2ccccc2C(=O)NC[C@@]2(C3CC3)NC(=O)NC2=O)cc1 [Example 130, N-{[(4R)-4-Cyclopropyl-2,5-Dioxoimidazolidin-4-Yl]Methyl}-4′-Methoxy[Biphenyl]-2-Carboxamide]	17.3
O=C1NC(=O)[C@](CNC(=O)c2ccc(C(F)(F)F)cc2-c2ccc(C3CC3)cc2)(C2CC2)N1 [Example 108, 4′-Cyclopropyl-N-{[(4R)-4-Cyclopropyl-2,5-Dioxoimidazolidin-4-Yl]Methyl}-5-(Trifluoromethyl)[Biphenyl]-2-Carboxamide]	19
Cc1scnc1C1(CNC(=O)c2ccc(Cl)cc2-c2ccc(C(F)(F)F)cc2)NC(=O)NC1=O (single isomer, unassigned; ent-5) [Example 16, Ent-5-Chloro-N-{[4-(5-Methyl-1,3-Thiazol-4-Yl)-2,5-Dioxoimidazolidin-4-Yl]Methyl}-4′-(Trifluoromethyl)[Biphenyl]-2-Carboxamide]	3.5
O=C1NC(=O)C(CNC(=O)c2ccc(F)cc2-c2ccc(C(F)(F)F)cc2)(c2ccnn2C(F)F)N1 (racemic) [Example 262, Rac-N-({4-[1-(Difluoromethyl)-1H-Pyrazol-5-Yl]-2,5-Dioxoimidazolidin-4-Yl}Methyl)-5-Fluoro-4′-(Trifluoromethyl)[Biphenyl]-2-Carboxamide]	19
Cc1c(C2(CNC(=O)c3ccccc3-c3ccc(C(F)(F)F)cc3)NC(=O)NC2=O)cnn1CC(F)(F)F (racemic) [Example 98, Rac-N-({4-[5-Methyl-1-(2,2,2-Trifluoroethyl)-1H-Pyrazol-4-Yl]-2,5-Dioxoimidazolidin-4-Yl}Methyl)-4′-(Trifluoromethyl)[Biphenyl]-2-Carboxamide]	21
O=C1NC(=O)[C@](CNC(=O)c2ccc(F)cc2-c2ccc(C3CC3(F)F)cc2)(C2CC2)N1 (stereo partly drawn) [Example 142, N-{[(4R)-4-Cyclopropyl-2,5-Dioxoimidazolidin-4-Yl]Methyl}-4′-(2,2-Difluorocyclopropyl)-5-Fluoro[1,1′-Biphenyl]-2-Carboxamide]	18
Cc1ccc(C(=O)NC[C@@]2(C3CC3)NC(=O)NC2=O)c(-c2ccc(C3CC3(F)F)cc2)c1 (stereo partly drawn) [Example 136, N-{[(4R)-4-Cyclopropyl-2,5-Dioxoimidazolidin-4-Yl]Methyl}-4′-(2,2-Difluorocyclopropyl)-5-Methyl[1,1′-Biphenyl]-2-Carboxamide]	7.1
O=C1NC(=O)C(CNC(=O)c2ccccc2-c2ccc(C(F)(F)F)cc2)(c2ncsc2C(F)(F)F)N1 (stereo not drawn) [Example 264, Ent-N-({2,5-Dioxo-4-[5-(Trifluoromethyl)-1,3-Thiazol-4-Yl]Imidazolidin-4-Yl}Methyl)-4′-(Trifluoromethyl)[Biphenyl]-2-Carboxamide]	11
Cc1ccc(-c2ccccc2C(=O)NCC2(c3nccs3)NC(=O)NC2=O)cc1 (stereo not drawn) [Example 201, Ent-N-{[2,5-Dioxo-4-(1,3-Thiazol-2-Yl)Imidazolidin-4-Yl]Methyl}-4′-Methyl[Biphenyl]-2-Carboxamide]	8.1
